Results taken from US7507725B2, “Compounds with sulphonamide group and pharmaceutical compositions containing these compounds” (Schering AG, priority 2000, dated 2009).

How the values were obtained:
[1] = Hepatic estrogenicity after oral administration; type: in vivo
Text: After oral administration, estradiol sulfamate is resorbed by the gastrointestinal tract and is taken up into erythrocytes or bonded to erythrocytes. […] The estradiol sulfamate is enriched in the erythrocytes by a multiple (factor: 98:2) of the plasma concentration, whereby a depot of the estradiol sulfamate is produced that makes possible the slow release of the estradiol sulfamate into peripheral tissues and target tissues (see FIG. 2). This makes possible an extension of the dwell time of the estradiol sulfamate in the organism, and the occurrence of very high levels in the plasma is avoided.

[2] = tested on: erythrocytes; assay: Stability of the prodrug and release of the active ingredient in erythrocytes, plasma and tissues; type: in vitro ADME
Text: If the compounds act as a prodrug, the therapeutically desirable action is obtained by release, especially hydrolytic cleavage, of the active ingredient that is contained in the product and/or its metabolites.

[3] = molecular target: T1, carboanhydrase II (hCA II) (Homo sapiens, UniProt P00918); assay: Affinity chromatography of erythrocyte lysate proteins on immobilized estradiol sulfamate derivative, eluate analysed by Western blot; type: binding; conditions: ligand J1242 immobilized on E-AH-sepharose
T1 construct: proteins of erythrocyte-lysates were separated on the column; from tissue; host or cells: erythrocytes (lysate)
Text: In FIG. 3, the chemical synthesis of a linkable estradiol sulfamate (J1242) is shown, which is described in S. Schwarz et al., Steroids 64 (1999) 460–471.
After the estradiol sulfamate derivative is immobilized in the column material (E-AH-sepharose), proteins of erythrocyte-lysates were separated on the column. The protein that is responsible for the binding of estradiol sulfamate in erythrocytes was adsorbed on the surface of the affinity chromatography column. After the protein remaining on the column was washed and eluted with an acetate buffer, the eluate was analyzed with use of the “Western Plot Technique” (see FIGS. 4 and 5).

[4] = tested on: erythrocytes; assay: Distribution of total radioactivity (3H/14C) on erythrocytes and plasma after one-time oral administration (FIG. 1); type: in vivo; conditions: 3H-labeled steroid skeleton
Text: There are indications that in oral administration, both radicals R^1 and R^2, if they are different from a hydrogen atom, are cleaved off and are replaced by a hydrogen atom, so that in this case, not the group —SO2NR^1R^2, but rather the group —SO2NH2 is provided for the uptake into erythrocytes or binding to erythrocytes. […] The data also confirm that substances according to the invention are enriched in the erythrocyte compartment relative to the plasma.

In the case of `C[C@]12CC[C@@H]3c4ccc(OS(N)(=O)=O)cc4CC[C@H]3[C@@H]1CC[C@@H]2O` [J995, estradiol sulfamate], the hepatic estrogenicity [1] is reported as “reduced hepatic estrogenicity”, the “site of release of the active ingredient from the prodrug” value [2] is reported as “only in the plasma or in tissues” and the “stability of the compound in erythrocytes” value ([2]; erythrocytes) is reported as “stable in the erythrocytes”. For the same molecule, the “binding to carrier protein in erythrocytes” value [3] was “binds to the carboanhydrase II (hCA II)”.
With “17β-hydroxy-estra-1,3,5(10)-trien-3-yl-(N-acetyl)sulfamate [J1045]” the “presence of the 14C-labeled acyl substituent of the sulfamate radical in the blood” value [4] was “no longer present in the-blood”.
